In paper PMC1192819, “Molecular cloning and characterization of a nuclear androgen receptor activated by 11-ketotestosterone” (Reproductive biology and endocrinology : RB&E, 2005):

Tests used:
[1] = biological target: T1, AR in stickleback kidney cytosolic extracts (Gasterosteus aculeatus, UniProt Q801Z1); assay: Ligand competition assay with 1 nM [3H]-DHT, kidney cytosolic extracts; assay type: binding, three-spined stickleback (Gasterosteus aculeatus); details: overnight 4°C, read-out: EC50 (competition for [3H]-DHT binding)
T1 sequence (Q801Z1 1-682): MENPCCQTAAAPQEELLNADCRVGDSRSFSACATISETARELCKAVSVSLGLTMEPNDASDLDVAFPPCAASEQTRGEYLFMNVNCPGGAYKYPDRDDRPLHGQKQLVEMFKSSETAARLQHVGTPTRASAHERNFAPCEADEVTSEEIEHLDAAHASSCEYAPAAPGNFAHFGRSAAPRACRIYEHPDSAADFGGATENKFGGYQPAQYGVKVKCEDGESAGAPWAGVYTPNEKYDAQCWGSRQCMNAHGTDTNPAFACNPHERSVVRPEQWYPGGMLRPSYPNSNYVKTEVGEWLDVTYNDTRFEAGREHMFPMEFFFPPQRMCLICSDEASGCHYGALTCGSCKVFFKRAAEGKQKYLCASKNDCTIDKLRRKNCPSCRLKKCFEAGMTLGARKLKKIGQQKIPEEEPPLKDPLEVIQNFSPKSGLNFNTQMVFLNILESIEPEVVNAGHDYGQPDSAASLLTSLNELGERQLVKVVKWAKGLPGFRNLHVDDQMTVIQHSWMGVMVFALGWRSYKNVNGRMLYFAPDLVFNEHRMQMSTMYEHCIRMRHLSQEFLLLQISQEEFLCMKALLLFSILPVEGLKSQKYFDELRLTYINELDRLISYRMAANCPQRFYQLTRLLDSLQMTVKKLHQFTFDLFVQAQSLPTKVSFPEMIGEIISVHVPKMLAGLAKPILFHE
Experimental: The steroid specificity of receptor binding was examined using a competitive binding assay. […] Following incubation, the reaction was terminated by addition of DCC and centrifugation and the specific binding in each tube was determined as described above.

[2] = biological target: T2, human AR (Homo sapiens, UniProt P10275); assay: ARE-luciferase trans-activation assay, human AR in transfected ZFL cells; assay type: cell-based; details: 10^-8 M of each steroid
T2 construct: expressed in transfected cells; host or cells: ZFL (zebrafish liver) cells
T2 sequence (P10275 1-920): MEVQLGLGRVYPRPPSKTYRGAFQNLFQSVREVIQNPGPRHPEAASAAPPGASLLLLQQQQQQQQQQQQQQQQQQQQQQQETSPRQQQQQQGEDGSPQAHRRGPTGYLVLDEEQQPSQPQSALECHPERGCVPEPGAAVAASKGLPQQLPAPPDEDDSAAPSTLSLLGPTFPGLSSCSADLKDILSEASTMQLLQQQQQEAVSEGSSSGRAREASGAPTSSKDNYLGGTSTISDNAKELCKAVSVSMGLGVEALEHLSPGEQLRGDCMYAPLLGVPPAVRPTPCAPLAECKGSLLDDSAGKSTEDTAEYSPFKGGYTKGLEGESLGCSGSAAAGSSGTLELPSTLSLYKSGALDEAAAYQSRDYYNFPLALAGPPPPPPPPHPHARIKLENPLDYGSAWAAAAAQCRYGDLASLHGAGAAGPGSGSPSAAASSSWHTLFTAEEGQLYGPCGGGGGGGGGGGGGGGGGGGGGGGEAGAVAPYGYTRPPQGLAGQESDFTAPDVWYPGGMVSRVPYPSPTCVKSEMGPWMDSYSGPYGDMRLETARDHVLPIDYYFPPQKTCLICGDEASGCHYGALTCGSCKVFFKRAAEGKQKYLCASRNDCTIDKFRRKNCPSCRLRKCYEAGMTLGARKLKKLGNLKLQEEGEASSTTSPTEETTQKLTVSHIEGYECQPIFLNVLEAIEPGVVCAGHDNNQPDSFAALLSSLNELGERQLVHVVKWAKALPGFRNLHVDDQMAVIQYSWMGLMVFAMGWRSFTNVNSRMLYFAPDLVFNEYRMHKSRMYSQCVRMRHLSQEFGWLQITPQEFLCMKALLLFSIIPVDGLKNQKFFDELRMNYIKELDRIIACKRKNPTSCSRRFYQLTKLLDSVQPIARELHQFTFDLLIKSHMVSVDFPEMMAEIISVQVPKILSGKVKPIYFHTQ

[3] = tested on: spiggin mRNA in adult female stickleback kidney; assay: Induction of spiggin mRNA in stickleback kidney after steroid implants (slot blot); assay type: in vivo, three-spined stickleback (Gasterosteus aculeatus); details: females
Experimental: The fish were anesthetized with 0.1% (v/v) 2-phenoxyethanol (Sigma, St. Louis, MO, USA) and implanted intraperitoneally with Silclear silicone tubing (10-mm length, 0.6-mm inner diameter, 1.2-mm outer diameter) containing steroids dissolved in cocoa butter. […] KA was used as this steroid is converted into KT by the fish. Tubes containing cocoa butter alone were used as controls. Following implantation the fish were maintained in 50-liter aquaria containing brackish water (0.5% salinity) at 20°C under LD 16:8 h. At sampling fish were decapitated and the kidneys were excised, frozen using liquid nitrogen, and stored at -70°C. A number of experiments were performed as follows. Spiggin mRNA was measured in post-breeding females that were dissected 2 days following implantation of tubes. Cytosolic androgen-receptors were measured in females and in castrated males. Males were castrated under anesthesia as above, by making a 1.5 mm long incision into the abdominal cavity on each side and removing the testes using forceps. The females and the castrated males were implanted with control and high dose tubes and dissected after 6 days. AR mRNA was studied in females implanted for 12 h, 2 and 16 days (separate experiments) with control and high dose tubes and in males castrated as above and implanted for 10 days with control tubes and high doses of KA or E2.
Total RNA was extracted using Tri Reagent™ (Sigma). Aliquots of 10 μg of total RNA were mixed with denaturing solution (6 × SSC, 7% (v/v) formaldehyde) and transferred onto a nylon membrane (Amersham Pharmacia Biotech) using a Minifold II Slot Blot Apparatus (Schleicher and Schuell, Keene, NH, USA). Membranes were probed using either a randomly primed [α-^32P]-dCTP radiolabelled AR cDNA fragment (918 base pairs) that was isolated by reverse transcriptase-polymerase chain reaction and sequenced as above, or a randomly primed [α-^32P]-dCTP radiolabelled spiggin-α cDNA. Hybridizations were performed at 65°C overnight (6 × SCC, 0.1% (w/v) SDS, 100 μg ml^-1 tRNA, and 5 × Denhardt's solution). The membranes were washed for 2 × 30 minutes at 42°C and 65°C in 0.1 × SCC, 0.1% (w/v) SDS whereafter Hyperfilm™-MP film was exposed at -70°C. The films were visualized using Curix 60 Film Developer. Following AR and spiggin mRNA determination the membranes were stripped and analyzed for 18S rRNA using a cDNA fragment as internal control. Each AR or spiggin transcript was then semi-quantified using Quantity ONE 4.2.3 (Bio-Rad, Laboratories, Inc, Hercules, CA, USA) in relation to its internal 18S transcript.

## C[C@]12CC(=O)[C@H]3[C@@H](CCC4=CC(=O)CC[C@@]43C)[C@@H]1CC[C@@H]2O [KT, 11-ketotestosterone]
[1]
  EC50: 42.8 ± 3.42 nM
[2]
  activation of human AR compared among androgens: equally activated
[3]; 1 μg implant dose
  potency in spiggin induction relative to DHT: 23 times
[3]; 25 μg implant dose
  effectiveness at increasing kidney spiggin mRNA levels relative to T: 50 times
